Test results: article PMC8242589, “Cardiac Safety of Kinase Inhibitors – Improving Understanding and Prediction of Liabilities in Drug Discovery Using Human Stem Cell-Derived Models” (Frontiers in Cardiovascular Medicine, 2021)

What was measured:
[1] = system: hSC-CMs (Cor.4U Cardiomyocytes); test: ATP assay (CellTiter-Glo Luminescent Cell Viability Assay); assay type: cell-based, human; settings: for viability at 0.03 µM / viability at 0.1 µM / viability at 0.3 µM / viability at 1 µM: Homo sapiens, Cardiomyocyte, normalized to time-matched DMSO control; for Effect on ATP level, in words: hSC-CMs, up to the highest test concentrations
Method in brief: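 Human stem-cell-derived Cor.4U cardiomyocytes (25,000–30,000/well), cultured 4 days at 37 °C, switched to serum-free BMCC medium 12 h before dosing. Cellular ATP quantified by CellTiter-Glo luminescence and normalized to time-matched DMSO controls; at least three replicates per concentration.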

GSK-3α = settings: ref [46] (CHIR99021), [47] (SB 216763); read-out: Target IC50 GSK-3α; cited from earlier work
[2] = system: hSC-CMs (Cor.4U Cardiomyocytes); test: Apoptosis assay (CellEvent Caspase-3/7 Green, IncuCyte ZOOM kinetics over 24 h); assay type: cell-based, human; settings: for activity at 0.03 µM / activity at 0.1 µM / activity at 0.3 µM / activity at 1 µM: Homo sapiens, Cardiomyocyte, normalized to time-matched vehicle control; for Apoptosis (caspase-3/7 activation), result in words: monitored over 24 h
Method in brief: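 Apoptosis was followed kinetically with a caspase-3/7 green fluorescent probe, imaging phase contrast and fluorescence every 2 h through 24 h compound exposure, after a 2 h baseline. Human stem cell-derived cardiomyocytes had been pre-cultured 4 days at 37 °C. Green object area per well was expressed relative to time-matched vehicle, with ≥3 replicates per concentration.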

[3] = system: hSC-CMs (Cor.4U Cardiomyocytes); test: CardioExcyte 96 impedance and EFP recording (beating rate, base impedance); assay type: cell-based, human; settings: for activity at 0.03 µM / activity at 0.1 µM / activity at 0.3 µM / activity at 1 µM: Homo sapiens, Cardiomyocyte, vs baseline before drug (taken as 100%); for Effect on cardiomyocyte function in 3D surface plots (beating rate, base impedance, ATP), in words / Effect on hSC-CMs function (base impedance and beating rate), in words: hSC-CMs, 2 and 24 h
Method in brief: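 hSC-CM monolayers (Cor.4U), cultured 4 days at 37 °C, 5% CO2, recorded spontaneously beating; impedance sampled at 1 kHz, EFP at 10 kHz. Beating rate taken as reciprocal of inter-spike interval in EFP. Each test concentration expressed as fractional change versus pre-drug baseline (100%).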

| SMILES | viability at 0.03 µM ([1]; 2h) [%] | viability at 0.03 µM ([1]; 24h) [%] | viability at 0.1 µM ([1]; 2h) [%] | viability at 0.1 µM ([1]; 24h) [%] | viability at 0.3 µM ([1]; 2h) [%] | viability at 0.3 µM ([1]; 24h) [%] | viability at 1 µM ([1]; 2h) [%] | viability at 1 µM ([1]; 24h) [%] | Effect on ATP level, in words [1] | IC50 (GSK-3α) [nM] | activity at 0.03 µM ([2]; 2h) [%] | activity at 0.03 µM ([2]; 24h) [%] | activity at 0.1 µM ([2]; 2h) [%] | activity at 0.1 µM ([2]; 24h) [%] | activity at 0.3 µM ([2]; 2h) [%] | activity at 0.3 µM ([2]; 24h) [%] | activity at 1 µM ([2]; 2h) [%] | activity at 1 µM ([2]; 24h) [%] | Apoptosis (caspase-3/7 activation), result in words ([2]; hSC-CMs) | activity at 0.03 µM ([3]; 2h, read-out: BR) [%] | other results |
| --- | --- | --- | --- | --- | --- | --- | --- | --- | --- | --- | --- | --- | --- | --- | --- | --- | --- | --- | --- | --- | --- |
| Cn1cc(C2=C(c3ccc(Cl)cc3Cl)C(=O)NC2=O)c2ccccc21 [SB 216763] | 88 | 98 | 88 | 99 | 91 | 95 | 97 | 96 | did not impact the ATP level | 34 | 143 | 92 | 174 | 132 | 256 | 265 | 326 | 352 | quickly induced a concentration-dependent caspase−3/7 activation | 98 | Time to plateau of caspase-3/7 activation ([2]; hSC-CMs): within the first hour; activity at 0.03 µM ([3]; 2h, read-out: Base Imp): 109%; activity at 0.03 µM ([3]; 24h, read-out: BR): 91%; activity at 0.03 µM ([3]; 24h, read-out: Base Imp): 108%; activity at 0.1 µM ([3]; 2h, read-out: BR): 88%; activity at 0.1 µM ([3]; 2h, read-out: Base Imp): 107%; activity at 0.1 µM ([3]; 24h, read-out: BR): 94%; activity at 0.1 µM ([3]; 24h, read-out: Base Imp): 107%; activity at 0.3 µM ([3]; 2h, read-out: BR): 97%; activity at 0.3 µM ([3]; 2h, read-out: Base Imp): 106%; activity at 0.3 µM ([3]; 24h, read-out: BR): 94%; activity at 0.3 µM ([3]; 24h, read-out: Base Imp): 102%; activity at 1 µM ([3]; 2h, read-out: BR): 85%; activity at 1 µM ([3]; 2h, read-out: Base Imp): 102%; activity at 1 µM ([3]; 24h, read-out: BR): 93%; activity at 1 µM ([3]; 24h, read-out: Base Imp): 105%; Effect on cardiomyocyte function in 3D surface plots (beating rate, base impedance, ATP), in words [3]: minimal functional effect; Effect on hSC-CMs function (base impedance and beating rate), in words [3]: did not produce functionally relevant changes |
| Cc1c[nH]c(-c2cnc(NCCNc3ccc(C#N)cn3)nc2-c2ccc(Cl)cc2Cl)n1 [CHIR99021] | 87 | 97 | 87 | 95 | 93 | 92 | 99 | 97 | did not impact the ATP level | 10 | 160 | 109 | 143 | 79 | 132 | 80 | 122 | 85 | did not have any functionally-relevant effect | 99 | activity at 0.03 µM ([3]; 2h, read-out: Base Imp): 96%; activity at 0.03 µM ([3]; 24h, read-out: BR): 95%; activity at 0.03 µM ([3]; 24h, read-out: Base Imp): 97%; activity at 0.1 µM ([3]; 2h, read-out: BR): 93%; activity at 0.1 µM ([3]; 2h, read-out: Base Imp): 93%; activity at 0.1 µM ([3]; 24h, read-out: BR): 92%; activity at 0.1 µM ([3]; 24h, read-out: Base Imp): 97%; activity at 0.3 µM ([3]; 2h, read-out: BR): 90%; activity at 0.3 µM ([3]; 2h, read-out: Base Imp): 94%; activity at 0.3 µM ([3]; 24h, read-out: BR): 92%; activity at 0.3 µM ([3]; 24h, read-out: Base Imp): 91%; activity at 1 µM ([3]; 2h, read-out: BR): 84%; activity at 1 µM ([3]; 2h, read-out: Base Imp): 90%; activity at 1 µM ([3]; 24h, read-out: BR): 93%; activity at 1 µM ([3]; 24h, read-out: Base Imp): 88%; Effect on cardiomyocyte function in 3D surface plots (beating rate, base impedance, ATP), in words [3]: minimal functional effect; Effect on hSC-CMs function (base impedance and beating rate), in words [3]: did not produce functionally relevant changes |
